27 compounds from ChEMBL document CHEMBL5729675, “Sulfonamide compound or salt thereof” (2023) can be followed below.

The structures appear in SMILES notation.

Chain of Ribonucleotide reductase (P23921 whole entry, looked up): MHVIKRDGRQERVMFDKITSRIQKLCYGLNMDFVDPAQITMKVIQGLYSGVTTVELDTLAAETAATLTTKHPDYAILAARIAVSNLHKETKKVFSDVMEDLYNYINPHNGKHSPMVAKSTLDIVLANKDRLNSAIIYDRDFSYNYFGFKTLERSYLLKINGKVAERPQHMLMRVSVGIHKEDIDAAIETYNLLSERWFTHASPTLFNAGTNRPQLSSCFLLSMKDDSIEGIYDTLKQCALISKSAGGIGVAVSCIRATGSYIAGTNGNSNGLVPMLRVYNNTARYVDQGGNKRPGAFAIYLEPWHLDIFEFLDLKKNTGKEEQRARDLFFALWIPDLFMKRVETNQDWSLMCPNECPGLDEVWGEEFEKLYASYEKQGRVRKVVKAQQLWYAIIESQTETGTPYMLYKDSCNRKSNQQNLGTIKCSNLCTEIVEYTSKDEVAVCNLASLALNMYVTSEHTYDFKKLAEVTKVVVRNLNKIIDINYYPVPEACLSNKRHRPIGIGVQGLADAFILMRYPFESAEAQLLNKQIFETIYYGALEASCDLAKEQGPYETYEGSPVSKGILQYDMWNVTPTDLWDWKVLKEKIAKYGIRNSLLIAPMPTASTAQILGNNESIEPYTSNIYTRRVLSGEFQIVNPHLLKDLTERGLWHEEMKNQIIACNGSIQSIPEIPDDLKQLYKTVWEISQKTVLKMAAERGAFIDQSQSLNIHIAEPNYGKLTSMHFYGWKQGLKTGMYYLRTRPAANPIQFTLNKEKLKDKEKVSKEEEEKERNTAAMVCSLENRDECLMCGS
Chain of Ribonucleotide reductase (Q7LG56 whole entry, looked up): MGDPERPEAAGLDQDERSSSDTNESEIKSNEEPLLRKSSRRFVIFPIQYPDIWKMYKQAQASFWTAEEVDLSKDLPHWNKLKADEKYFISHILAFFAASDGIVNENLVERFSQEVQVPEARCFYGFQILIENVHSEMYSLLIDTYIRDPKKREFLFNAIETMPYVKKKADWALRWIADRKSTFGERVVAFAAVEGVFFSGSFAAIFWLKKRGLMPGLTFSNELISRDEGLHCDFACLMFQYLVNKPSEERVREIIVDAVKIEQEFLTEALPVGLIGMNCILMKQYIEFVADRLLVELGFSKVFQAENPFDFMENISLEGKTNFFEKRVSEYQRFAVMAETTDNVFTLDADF

The assay addresses Ribonucleotide reductase (Homo sapiens, UniProt P23921+Q7LG56). Kind of assay: Human RNR Inhibition Effect: The inhibitory activity against the ribonucleotide reduction reaction (hereinafter referred to as RNR reaction) of the test compound was determined by measuring the formation of deoxycytidine diphosphate (hereinafter referred to as dCDP) from cytidine diphosphate (hereinafter referred to as CDP) by the following method.Human M1 subunit and human M2 subunit (mutant ….
The IC50 is the concentration needed to halve the response being measured. For `Cc1ccc(F)c([C@@H](C)[C@H](NS(=O)(=O)c2cc(F)c(Cl)cc2C(N)=O)c2n[nH]c(=O)o2)c1C`, the IC50 was determined as 0.12 µM.
Next, `Cc1cccc2cccc([C@@H](C)[C@H](NS(=O)(=O)c3ccc(Cl)c4c3OCCC4O)c3n[nH]c(=O)o3)c12` (some centres not stated): 0.23 µM.
The figure for `Cc1cc(S(=O)(=O)N[C@H](c2n[nH]c(=O)o2)[C@H](C)c2c(F)ccc(C)c2C)c(C(N)=O)cc1Cl` is 0.1 µM; for `Cc1ccc(F)c([C@@H](C)[C@H](NS(=O)(=O)c2ncc(Cl)cc2C(N)=O)c2n[nH]c(=O)o2)c1C` it is 0.04 µM.
Next, `COc1cc(N)ccc1S(=O)(=O)N[C@H](c1n[nH]c(=O)o1)[C@H](C)c1c(F)ccc2ccccc12`: 0.26 µM; `COc1cc(C(N)=O)c(S(=O)(=O)N[C@H](c2n[nH]c(=O)o2)[C@H](C)c2c(F)ccc(C)c2C)cc1OC`: 0.36 µM; `Cc1c(Cl)ccc(F)c1[C@@H](C)[C@H](NS(=O)(=O)c1ncc(Br)cc1C(N)=O)c1n[nH]c(=O)o1`: 0.07 µM.
Regarding `Cc1ccc(F)c([C@@H](C)[C@H](NS(=O)(=O)c2cc(OCC(F)F)ccc2C(N)=O)c2n[nH]c(=O)o2)c1C`, the midpoint of inhibition, the IC50, lay at 0.07 µM.
As for `Cc1ccc(F)c([C@@H](C)[C@H](NS(=O)(=O)c2ccc(Cl)cc2C(=O)N(C)C)c2n[nH]c(=O)o2)c1C`, the IC50 amounted to 0.5 µM.
Next, `Cc1ccc(F)c([C@@H](C)[C@H](NS(=O)(=O)c2ccc(Cl)cc2C(C)O)c2n[nH]c(=O)o2)c1C` (some centres not stated): 0.38 µM; `Cc1ccc(F)c([C@@H](C)[C@H](NS(=O)(=O)c2ccc(Cl)c3c2C(O)CCC3)c2n[nH]c(=O)o2)c1C` (some centres not stated): 0.91 µM.
Next, `Cc1ccc(F)c([C@@H](C)[C@H](NS(=O)(=O)c2c(F)cc(Cl)cc2C(N)=O)c2n[nH]c(=O)o2)c1C`: 0.14 µM; `Cc1ccc(F)c([C@@H](C)[C@H](NS(=O)(=O)c2ccc(Cl)cc2C(=O)N2CCC2)c2n[nH]c(=O)o2)c1C`: 0.41 µM; `Cc1ccc(F)c([C@@H](C)[C@H](NS(=O)(=O)c2c(Cl)cc(Cl)cc2C(N)=O)c2n[nH]c(=O)o2)c1C`: 0.42 µM.
The figure for `CNC(=O)c1cc(Br)cnc1S(=O)(=O)N[C@H](c1n[nH]c(=O)o1)[C@H](C)c1c(F)ccc(C)c1C` is 0.25 µM.
Consider `Cc1ccc(F)c([C@@H](C)[C@H](NS(=O)(=O)c2cc3c(cc2C(=O)O)OCCO3)c2n[nH]c(=O)o2)c1C`, for which the IC50 was 0.79 µM. This IC50 is about 3.2-fold higher than that of the compound before.
The figure for `Cc1ccc(F)c([C@@H](C)[C@H](NS(=O)(=O)c2cc([N+](=O)[O-])c(Cl)cc2C(N)=O)c2n[nH]c(=O)o2)c1C` is 0.13 µM; for `Cc1ccc(F)c([C@@H](C)[C@H](NS(=O)(=O)c2ccc(Cl)c(C(=O)N(C)C)n2)c2n[nH]c(=O)o2)c1C` it is 0.08 µM.
As to `COc1cc(S(=O)(=O)N[C@H](c2n[nH]c(=O)o2)[C@H](C)c2c(F)ccc(C)c2C)c(C(N)=O)cc1Cl`, the IC50 stood at 0.1 µM.
Next, `C[C@H](c1cccc2c1CCCC2)[C@H](NS(=O)(=O)c1ccc(N)cc1)c1n[nH]c(=O)o1`: 0.85 µM; `Cc1ccc(F)c([C@@H](C)[C@H](NS(=O)(=O)c2ccc(Cl)cc2C(=O)NCCO)c2n[nH]c(=O)o2)c1C`: 0.27 µM; `Cc1c(Cl)ccc(F)c1[C@@H](C)[C@H](NS(=O)(=O)c1ncc(Cl)cc1C(N)=O)c1n[nH]c(=O)o1`: 0.1 µM.
The figure for `Cc1ccc(F)c([C@@H](C)[C@H](NS(=O)(=O)c2ncc(Br)cc2C(N)=O)c2n[nH]c(=O)o2)c1C` is 0.02 µM; for `Cc1ccc(F)c([C@@H](C)[C@H](NS(=O)(=O)c2c(F)cc(F)c3c2OCCC3O)c2n[nH]c(=O)o2)c1C` (some centres not stated) it is 0.23 µM.
Next, `CNC(=O)c1nc(S(=O)(=O)N[C@H](c2n[nH]c(=O)o2)[C@H](C)c2c(F)ccc(C)c2C)ccc1Cl`: 0.06 µM.
With `Cc1ccc(F)c([C@@H](C)[C@H](NS(=O)(=O)c2cc3c(cc2C(N)=O)OCCO3)c2n[nH]c(=O)o2)c1C`, the midpoint of inhibition, the IC50, lay at 0.09 µM.
With `Cc1c(Br)ccc(F)c1[C@@H](C)[C@H](NS(=O)(=O)c1ncc(Cl)cc1C(N)=O)c1n[nH]c(=O)o1`, the IC50 amounted to 0.06 µM.
